For series [1], the system named is normal human fibroblasts BJ. The series is described as follows: Calcein AM cytotoxicity assay, normal fibroblasts BJ. Type of series: cell-based. As to conditions: 72 h, means ± SD, three independent experiments in triplicate. As to the method:
(§1) Stock solutions (10 mmol/l) of the tested compounds were prepared by dissolving relevant quantity of the substance in DMSO. […] Calcein AM was obtained from Molecular Probes (Invitrogen Corporation, CA, USA).
(§2) All cell lines were cultured in DMEM medium (Sigma, Mo., USA). Medium was supplemented with 10% heat-inactivated fetal bovine serum, 2 mmol/l L-glutamine and 1% penicillin-streptomycin. The cell lines were maintained under standard cell culture conditions at 37° C. and 5% CO2 in a humid environment. Cells were subcultured twice or three times a week using the standard trypsinization procedure.
(§3) All cell lines were cultured in DMEM medium (Sigma, Mo., USA) supplemented with 10% fetal calf serum, 2 mM glutamine, 100 U/ml penicillin and 100 μg/ml streptomycin, at 37° C. in a fully humidified atmosphere containing 5% CO2. Suspensions of these lines (ca. 1.0×10^5 cells/ml) were placed in 96-well microtitre plates and after 3 h of stabilization the tested compounds were added in serially diluted concentrations. Saponins were dissolved in dimethylsulfoxide (DMSO) before addition to cultures. Control cultures were treated with DMSO alone. The final concentration of DMSO in the reaction mixtures never exceeded 0.6%. Four-fold dilutions of the intended test concentration were added at time zero in 20 μl aliquots to the microtitre plate wells. Usually, each test compound was evaluated at six 4-fold dilutions and in routine testing; the highest well concentration was 50 μM, although this varied in a few cases, depending on the test compound. After 72 h of culture, the cells were incubated with Calcein AM solution (Molecular Probes) for 1 h. The fluorescence of viable cells was quantified using a Fluoroscan Ascent instrument (Microsystems).

The test system of series [2] is lung carcinoma cell line A549. The series can be described thus: Calcein AM cytotoxicity assay, A549. In kind it is cell-based, human. The settings on record: 72 h, means ± SD, three independent experiments in triplicate, read-out: IC50, A 549. As to the method:
as §1, §2, §3

Series [3] relates to osteosarcoma cell line HOS. The series is described as follows: Calcein AM cytotoxicity assay, HOS. Type of series: cell-based, human. The settings on record: 72 h, means ± SD, three independent experiments in triplicate. As to the method:
(§4) Stock solutions (10 mmol/l) of the tested compounds were prepared by dissolving relevant quantity of the substance in DMSO. Dulbecco's modified Eagle's medium (DMEM, RPMI 1640, F-12 medium), fetal bovine serum (FBS), L-glutamine, penicillin, streptomycin were purchased from Sigma (MO, USA). Calcein AM was obtained from Molecular Probes (Invitrogen Corporation, CA, USA).
(§5) The screening cell lines (T-lymphoblastic leukaemia cell line CEM, breast carcinoma cell line MCF-7, cervical carcinoma cell line HeLa, human glioblastoma cell line T98, human malignant melanoma G-361, human osteogenic sarcoma cell line HOS, carcinomic human alveolar basal epithelial cells A549, human colon carcinoma cells HCT 116 and human fibroblasts BJ) were obtained from the American Type Culture Collection (Manassas, Va., USA). All cell lines were cultured in DMEM medium (Sigma, Mo., USA). Medium was supplemented with 10% heat-inactivated fetal bovine serum, 2 mmol/l L-glutamine and 1% penicillin-streptomycin. The cell lines were maintained under standard cell culture conditions at 37° C. and 5% CO2 in a humid environment. Cells were subcultured twice or three times a week using the standard trypsinization procedure.
(§6) Cytotoxic activities of the novel compounds, obtained according to this invention, were tested in vitro against following cancer cell lines: T-lymphoblastic leukemia cell line CEM; breast carcinoma cell line MCF7, lung carcinoma cell line A549, cervical carcinoma cell line HeLa, malignant melanoma cell line G-361, osteosarcoma cell line HOS, human glioblastoma cell line T98, human colon carcinoma cells HCT 116 and normal human fibroblasts BJ. […] Usually, each test compound was evaluated at six 4-fold dilutions and in routine testing; the highest well concentration was 50 μM, although this varied in a few cases, depending on the test compound. […] The fluorescence of viable cells was quantified using a Fluoroscan Ascent instrument (Microsystems). […]

For series [4], the system named is T-lymphoblastic leukemia cell line CEM. The series can be described thus: Calcein AM cytotoxicity assay, CEM. In kind it is cell-based. As to conditions: 72 h; for dose-dependent antiproliferative activity, number of viable cells (FIG. 1): CEM, increasing concentrations, Calcein AM; for IC50: Calcein AM assay, means ± SD, three independent experiments in triplicate. The method, then: as §1, §2, §3

Series [5] has as its system breast carcinoma cell line MCF7. The series is described as follows: Calcein AM cytotoxicity assay, MCF7. As to conditions: for IC50: Calcein AM assay, 72 h, means ± SD, three independent experiments in triplicate; for dose-dependent antiproliferative activity, number of viable cells (FIG. 1): MCF7, 72 h, increasing concentrations, Calcein AM. In kind it is cell-based, human. As to the method:
as §1, §2, §3

Series [6] relates to cervical carcinoma cell line HeLa. The series is described as follows: Calcein AM cytotoxicity assay, HeLa. Type of series: cell-based. As to conditions: 72 h, means ± SD, three independent experiments in triplicate. As to the method:
as §1, §2, §3

For series [7], the system named is human colon carcinoma cells HCT 116. The series is described as follows: Calcein AM cytotoxicity assay, HCT 116. In kind it is cell-based. As to conditions: 72 h, means ± SD, three independent experiments in triplicate, read-out: IC50, HCT116. The method, then:
as §4, §5, §6

The test system of series [8] is human glioblastoma cell line T98. The series can be described thus: Calcein AM cytotoxicity assay, T98. In kind it is cell-based. The settings on record: 72 h, means ± SD, three independent experiments in triplicate. As to the method: as §4, §5
as §3, with “Cytotoxic activities of the novel compounds, obtained according to this invention, were tested in vitro against following cancer cell lines: T-lymphoblastic leukemia cell line CEM; breast carcinoma cell line MCF7, lung carcinoma cell line A549, cervical carcinoma cell line HeLa, malignant melanoma cell line G-361, osteosarcoma cell line HOS, human glioblastoma cell line T98, human colon carcinoma cells HCT 116 and normal human fibroblasts BJ. All” for “All”, “(Microsystems). The percentage of surviving cells in each well was calculated from the equation […]=(ODdrug exposed well/mean ODcontrol wells)×100%. The IC50 value, the drug concentration lethal to 50% of the tumour cells, was calculated from the obtained dose-response curves.” for “(Microsystems).”

Series [9] concerns malignant melanoma cell line G-361. The series is described as follows: Calcein AM cytotoxicity assay, G-361. In kind it is cell-based, human. As to conditions: 72 h, means ± SD, three independent experiments in triplicate. The method, then: as §1, §2, §3
Series [10] has as its system leukemia HL-60 cancer cells. The settings on record: cited from earlier work.
For the next series, the system named is P388. The settings on record: mice bearing P388, single administration of 0.01 mg/kg; cited from earlier work.
Series [11] deals with human leukemia and pancreatic cancer cells. The settings on record: cited from earlier work.

SMILES strings stand for the structures.

As for `CCCCCCCCCCCCCC(=O)OC[C@@H](C)[C@@]1(O)[C@@H](O[C@@H]2OC[C@H](O)[C@H](O[C@@H]3OC[C@@H](O)[C@H](O)[C@H]3OC(=O)c3ccc(OC)cc3)[C@H]2OC(C)=O)C[C@H]2[C@@H]3CC=C4C[C@@H](O)CC[C@]4(C)[C@H]3CC[C@@]21C` [Compound 9, (20R)-21-O-tetradecanoyl-20-methylpregn-5-ene-3β,16β,17α,21-tetraol 16-O-{2-O-(4-methoxybenzoyl)β-D-xylopyranosyl-(1-43)-2′-O-acetyl-α-L-arabinopyranoside}], the IC50 (commonly the concentration that inhibits the measured activity by half) in series [1] was 83 ± 5 nM; in series [2], 720 ± 70 nM; in series [3], 2700 ± 600 nM; in [4] it was 16 ± 5 nM; in [5] it was 48 ± 22 nM; in [6] it was 67 ± 2 nM. The IC50 in series [7] was 2800 ± 400 nM; in series [8], 28 ± 1 nM; in series [9], 30 ± 10 nM. The “dose-dependent antiproliferative activity, number of viable cells (FIG. 1)” value in [4] and in [5] was “significantly reduce the number of living cells” in each case.

In the case of `CCCCCCCCCCCCCCCCCC(=O)OC[C@@H](C)[C@@]1(O)[C@@H](O[C@@H]2OC[C@H](O)[C@H](O[C@@H]3OC[C@@H](O)[C@H](O)[C@H]3OC(=O)c3ccc(OC)cc3)[C@H]2OC(C)=O)C[C@H]2[C@@H]3CC=C4C[C@@H](O)CC[C@]4(C)[C@H]3CC[C@@]21C` [Compound 10, (20R)-21-O-Octadecanoyl-20-methylpregn-5-ene-3β,16β,17α,21-tetraol 16-O-{2-O-(4-methoxybenzoyl)-β-D-xylopyranosyl-(1→3)-2′-O-acetyl-α-L-arabinopyranoside}], the concentration for half-maximal inhibition (IC50) is 80 ± 4 nM in series [1]; 550 ± 180 nM in series [2]; 58 ± 1 nM in [4]; 195 ± 21 nM in series [5]; 435 ± 64 nM in [6]; 210 ± 50 nM in [8]. Further, in series [9], the IC50 is 300 ± 100 nM. In addition, the “dose-dependent antiproliferative activity, number of viable cells (FIG. 1)” value in series [4] and in series [5] was “significantly reduce the number of living cells” each time.

As for `CC(C)CCC(=O)[C@@H](C)[C@@]1(O)[C@@H](O)C[C@H]2[C@@H]3CC=C4C[C@@H](O)CC[C@]4(C)[C@H]3CC[C@@]21C` [OSW-1 aglycone, reference compound], the IC50 in series [1], in series [2], in series [3], in [4], in [5] and in series [6] was greater than 50000 nM in each case. In addition, the IC50 in series [7], in [8] and in [9] was greater than 50000 nM each time.

`COc1ccc(C(=O)O[C@H]2[C@H](O[C@@H]3[C@@H](OC(C)=O)[C@H](O[C@H]4C[C@H]5[C@@H]6CC=C7C[C@@H](O)CC[C@]7(C)[C@H]6CC[C@]5(C)[C@@]4(O)[C@H](C)C(=O)CCC(C)C)OC[C@@H]3O)OC[C@@H](O)[C@@H]2O)cc1` [OSW-1, reference compound]: the half-maximal inhibitory concentration (IC50) in series [1] was 0.2 nM; in series [2], 27 ± 3 nM; in series [3] it was 8200 ± 400 nM; in series [4] it was 3 ± 0.03 nM; in [5] it was 54.4 ± 0.2 nM; in [6], 3.4 ± 0.3 nM. Moreover, the results for the IC50 in series [7], in [8] and in series [9] were 8400 ± 500 nM, 70 ± 6 nM and 1000 ± 100 nM, respectively. Besides, the “cytotoxicity relative to clinically applied anticancer agents (mitomycin C, adriamycin, cisplatin, camptothecin, taxol)” value in [10] (HL-60) was 10-100 times. Besides, in series [10] (NCI tests), the “cytotoxic activity, HL-60” value is on record as “nanomolar concentrations”. The “prolongation of life span” value in the series with P388 was 59%. For the same compound, the effect on mitochondria entry in series [11] was “damaged the mitochondrial membrane and cristae”.

(Values after patent US8552161B2, “Saponin compounds, methods of preparation thereof, use thereof and pharmaceutical compositions” (Uniwersytet W Bialymstoku, priority 2009, dated 2013).)
